Experimental data taken from ChEMBL document CHEMBL1148406, “Inhibition of adenosine deaminase by novel 5:7 fused heterocycles containing the imidazo[4,5-e][1,2,4]triazepine ring system: a structure-activity relationship study” (J Med Chem, 2004).
pKi: −log10 of the molar value.

Biological target: T1, Adenosine deaminase (Bos taurus, UniProt P56658)
T1 sequence (P56658 whole entry): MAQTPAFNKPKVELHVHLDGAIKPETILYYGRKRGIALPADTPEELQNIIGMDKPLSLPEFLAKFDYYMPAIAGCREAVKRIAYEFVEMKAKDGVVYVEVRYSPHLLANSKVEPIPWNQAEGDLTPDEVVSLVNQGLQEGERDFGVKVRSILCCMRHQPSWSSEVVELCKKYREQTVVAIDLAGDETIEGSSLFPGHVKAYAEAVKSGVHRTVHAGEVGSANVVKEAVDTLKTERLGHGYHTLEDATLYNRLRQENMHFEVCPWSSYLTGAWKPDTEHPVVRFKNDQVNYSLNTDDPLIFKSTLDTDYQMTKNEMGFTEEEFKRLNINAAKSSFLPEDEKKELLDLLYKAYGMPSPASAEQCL
Assay: Binding affinity towards calf spleen adenosine deaminase was determined

Compound	pKi
CCCCOC1c2c(ncn2Cc2ccc(OC)cc2)N=CN(C)N1C (stereo not drawn)	4.82
COCCOC1c2c(ncn2Cc2ccc(OC)cc2)N=CN(C)N1C (stereo not drawn)	4.64
COc1ccc(Cn2cnc3c2C(OC)N(C)N(C)C=N3)cc1 (stereo not drawn)	4.62
COc1ccc(Cn2cnc3c2C(OC(C)C)N(C)N(C)C=N3)cc1 (stereo not drawn)	4.52
COc1ccc(COC2c3c(ncn3Cc3ccc(OC)cc3)N=CN(C)N2C)cc1 (stereo not drawn)	4.11
CCOC1c2c(ncn2Cc2ccc(OC)cc2)N=CN(C)N1C (stereo not drawn)	4.70
COc1ccc(Cn2cnc3c2C(OCc2cccc(C)c2)N(C)N(C)C=N3)cc1 (stereo not drawn)	4.03
CCCOC1c2c(ncn2Cc2ccc(OC)cc2)N=CN(C)N1C (stereo not drawn)	4.92
